Results published in ChEMBL document CHEMBL1141304, “Julichrome Q6 glucuronide, a monomeric subunit of the julimycin B-I complex from a terrestrial Streptomyces sp” (J Nat Prod, 2007).
Active and inactive are the calls of the source.

Assays:
Format in all cases: functional, organism-based
[1] = test system: Escherichia coli; experiment: Antimicrobial activity against Escherichia coli at 40 ug after 24 hrs by agar diffusion method
[2] = test system: Staphylococcus aureus; experiment: Antimicrobial activity against Staphylococcus aureus at 40 ug after 24 hrs by agar diffusion method
[3] = test system: Streptomyces viridochromogenes; experiment: Antimicrobial activity against Streptomyces viridochromogenes at 40 ug after 24 hrs by agar diffusion method
[4] = test system: Bacillus subtilis; experiment: Antimicrobial activity against Bacillus subtilis at 40 ug after 24 hrs by agar diffusion method
[5] = test system: Candida albicans; experiment: Antimicrobial activity against Candida albicans at 40 ug after 24 hrs by agar diffusion method
[6] = test system: Chlorella vulgaris; experiment: Antimicrobial activity against Chlorella vulgaris at 40 ug after 24 hrs by agar diffusion method
[7] = test system: Chlorella sorokiniana; experiment: Antimicrobial activity against Chlorella sorokiniana at 40 ug after 24 hrs by agar diffusion method
[8] = test system: Desmodesmus subspicatus; experiment: Antimicrobial activity against Scenedesmus subspicatus at 40 ug after 24 hrs by agar diffusion method

Measured: Activity

CC(=O)O[C@H](C)[C@@H]1c2cc3cccc(O[C@@H]4O[C@H](C(=O)O)[C@@H](O)[C@H](O)[C@H]4O)c3c(O)c2C(=O)C[C@]1(C)O
inactive: all assays above
